Literature values as cited in US20190346442A1, “IMPROVED HLA EPITOPE PREDICTION” (The Broad Institute, Inc., priority 2016, published 2019).

What was measured:
healthy human volunteers = conditions: 8 volunteers, one single s.c. administration, versus 4 subjects receiving placebo; whole blood
[1] = test system: ovarian carcinoma patients; conditions: poly-ICLC in combination with NY-ESO-1 peptide vaccine, in addition to Montanide; phase 1
[2] = test system: advanced hormone refractory prostate cancer patients; conditions: personalized vaccination combined with a low dose of estramustine

Row | Compound | differential expression of genes versus placebo (healthy human volunteers) | patients showing induction of CD4+ and CD8+ T cell, as well as antibody responses to the peptide [1] [%] | patients with >50% decrease in serum prostate specific antigen (PSA) [2] [%]
1 | Polyinosinic-Polycytidylic Acid-poly-L-lysine Carboxymethylcellulose [poly-ICLC] | up to 212 genes | > 90 | –
2 | C[C@]12CC[C@@H]3c4ccc(OC(=O)N(CCCl)CCCl)cc4CC[C@H]3[C@@H]1CC[C@@H]2O [estramustine] | – | – | 54
